Data on 36 compounds can be found in ChEMBL document CHEMBL3272121, “Hypolipidemic analogues of ethyl 4-benzyloxybenzoate” (J Med Chem, 1977).

What is called inhibition is the percentage by which the read-out fell short of the control. A higher inhibition goes with a strong effect.

Structures can show the parent of a compound that is named as a salt.

Data set [1] has as its system Rattus norvegicus. The data set is described as follows: Hypolipidemic activity in CFY Sprague-Dawley rat assessed as serum cholesterol level at 0.25% dietary level administered for 7 days relative to control. The format is functional.
In data set [2] the test system is Rattus norvegicus. Briefly: Hypolipidemic activity in CFY Sprague-Dawley rat assessed as serum triglyceride level at 0.25% dietary level administered for 7 days relative to control. The format is functional.
Data set [3] relates to Rattus norvegicus. Briefly: Toxicity in CFY Sprague-Dawley rat assessed as body weight gain at 0.25% dietary level administered for 7 days relative to control. The settings on record: in vivo, po, 168 h. The class given is organism-based.
Data set [4] relates to Rattus norvegicus. Briefly: Toxicity in CFY Sprague-Dawley rat assessed as relative liver weight at 0.25% dietary level administered for 7 days relative to control. The format is organism-based. The settings on record: in vivo, po, 168 h.
The subject of data set [5] is Rattus norvegicus. Briefly: Hypolipidemic activity in CFY Sprague-Dawley rat assessed as liver lipid per gm of liver at 0.25% dietary level administered for 7 days relative to control. The class given is functional.
The test system of data set [6] is Liver. Briefly: Inhibition of cholesterol biosynthesis from [1-14C]acetate in rat liver slices at […] relative to control. The format is functional.
For data set [7], the system named is Liver. Briefly: Inhibition of fatty acid biosynthesis from [1-14C]acetate in rat liver slices at 5 X 10^-4 M relative to control. The class given is functional.

In the case of `CCOC(=O)c1ccc(OCc2cccc(Cl)c2)cc1`, the Activity is on record as -19% in data set [1]; -6% in data set [2]; -1% in data set [3]; 10% in data set [4]; -2% in data set [5].

With `N#Cc1ccc(OCc2ccc(Cl)c(Cl)c2)cc1`, the Activity in data set [1] is -19%; in data set [2], -6%; in data set [3], -9%; in data set [4], 18%; in data set [5], 8%.

With `CCOC(=O)CCCCCc1ccc(OCc2ccccc2)cc1`, the Activity in data set [1] was -38%; in data set [2] it was -83%; in data set [3], -7%; in data set [4] it was 21%; in data set [5] it was 32%.

For the compound `CCCCCCCCCc1ccc(OCc2ccccc2)cc1`, the Activity in data set [1] was -12%; in data set [2], -67%; in data set [3], -41%; in data set [4], -5%. Besides, the inhibition at 500 µM came out at 67% in data set [6] and 60% in data set [7].

Regarding `CCOC(=O)c1ccc(COc2ccccc2)cc1`, the Activity in data set [1] is -25%; in data set [2], -38%; in data set [3], 8%; in data set [4], 26%; in data set [5] it was 3%.

For the compound `CCOC(=O)c1ccc(OCc2cc(C)ccc2C)cc1`, the Activity in data set [1] is recorded as -12%; in data set [2], -49%; in data set [3], -21%; in data set [4] it was -9%. The inhibition at 500 µM in data set [6] came out at 93%; in data set [7], 55%.

On to `CCOC(=O)c1ccc(OCc2ccc(C)c(C)c2)cc1`, for which the Activity in data set [1] is given as -19%; in data set [2] it was -47%; in data set [3], -7%; in data set [4], 10%; in data set [5], 13%. The figures for the inhibition at 500 µM in data set [6] and in data set [7] were 97% and 94%, respectively.

`CCOC(=O)C(C)(C)Oc1ccc(Cl)cc1` [CLOFIBRATE]: the Activity in data set [1] was -23%; in data set [2] it was -31%; in data set [3], 0%; in data set [4], 32%; in data set [5], 3%.

In the case of `Cc1ccc(COc2ccc(C#N)cc2)cc1`, the Activity is given as -19% in data set [1]; -58% in data set [2]; -29% in data set [3]; 27% in data set [4]; 14% in data set [5].

For the compound `CCCC(C(=O)OCCN(CC)CC)(c1ccccc1)c1ccccc1` [PROADIFEN HYDROCHLORIDE], the inhibition at 500 µM came out at 86% in data set [6] and 62% in data set [7].

On to `CCOC(=O)c1ccc(OCc2cccc([N+](=O)[O-])c2)cc1`, for which the Activity in data set [1] was -7%; in data set [2], -28%; in data set [3], -29%; in data set [4], -4%. For the same compound, the values for the inhibition at 500 µM in data set [6] and in data set [7] were 54% and 47%, respectively.

`CCOC(=O)c1ccc(OCc2ccccc2OC)cc1`: the Activity is listed as -13% in data set [1]; -42% in data set [2]; -10% in data set [3]; -2% in data set [4]; 7% in data set [5].

Regarding `CCOC(=O)Cc1ccc(OCc2ccc(F)cc2)cc1`, the Activity in data set [1] was -29%; in data set [2], -71%; in data set [3] it was 3%; in data set [4], 19%; in data set [5], 11%.

For `O=C(O)c1ccc(OCc2ccc(F)cc2)cc1`, the Activity in data set [1] is reported as -28%; in data set [2], -49%; in data set [3], -3%; in data set [4], 2%; in data set [5], 8%.

Consider `CCOCCOC(=O)c1ccc(OCc2ccccc2)cc1`, for which the Activity in data set [1] is reported as -17%; in data set [2], -51%; in data set [3] it was 10%; in data set [4], 10%; in data set [5] it was 0%.

Take `CCOC(=O)c1ccc(OCc2cccc(F)c2)cc1`: the Activity in data set [1] was -19%; in data set [2] it was -60%; in data set [3] it was -1%; in data set [4], -4%; in data set [5] it was 1%.

On to `COc1cc(C=O)ccc1OCc1ccccc1`, for which the Activity was -23% in data set [1]; -18% in data set [2]; -16% in data set [3]; 0% in data set [4]; 1% in data set [5].

In the case of `O=C([O-])c1ccc(OCc2ccccc2)cc1.[Na+]`, the Activity in data set [1] is recorded as -15%; in data set [2], -38%; in data set [3], -13%; in data set [4], 2%; in data set [5], 12%.

In the case of `CCOC(=O)c1ccc(OCc2cccc(C(F)(F)F)c2)cc1`, the Activity in data set [1] is listed as -11%; in data set [2] it was 8%; in data set [3] it was 12%; in data set [4] it was 9%. Moreover, the inhibition at 500 µM was 99% in data set [6] and 92% in data set [7].

Turning to `N#Cc1ccc(OCc2ccc(F)cc2)cc1`, the Activity in data set [1] was -17%; in data set [2] it was 1%; in data set [3], 6%; in data set [4], 20%; in data set [5], 7%.

As for `CCOC(=O)Cc1cccc(OCc2ccccc2OC)c1`, the Activity is recorded as -16% in data set [1]; -13% in data set [2]; 17% in data set [3]; 34% in data set [4]; 9% in data set [5].

Turning to `COC(=O)CCc1ccc(OCc2ccccc2)cc1`, the Activity in data set [1] was -16%; in data set [2], -45%; in data set [3], -3%; in data set [4] it was 18%; in data set [5] it was 3%.

As to `COC(=O)Cc1ccc(OCc2ccccc2)c(OC)c1`, the Activity is listed as -30% in data set [1]; -45% in data set [2]; -68% in data set [3]; 0% in data set [4]; 8% in data set [5].

`CCc1ccc(OCc2ccccc2)cc1`: the Activity in data set [1] was -17%; in data set [2] it was -57%; in data set [3] it was -3%; in data set [4], 20%; in data set [5], -6%.

As to `CCOC(=O)c1ccc(OCc2ccc(Cl)cc2Cl)cc1`, the Activity was -18% in data set [1]; -42% in data set [2]; -15% in data set [3]; -2% in data set [4]; 8% in data set [5].

Regarding `CCOC(=O)Cc1ccc(OCc2cccc(F)c2)cc1`, the Activity in data set [1] is on record as -37%; in data set [2], -71%; in data set [3] it was -17%; in data set [4], 18%; in data set [5] it was 9%.

As for `CCOC(=O)c1ccc(OCc2ccc(I)cc2)cc1`, the Activity was -18% in data set [1]; -60% in data set [2]; 7% in data set [3]; 11% in data set [4]; 3% in data set [5].

For `COC(=O)c1ccc(OCc2ccccc2)cc1`, the Activity in data set [1] is -19%; in data set [2] it was -51%; in data set [3], -14%; in data set [4], 15%; in data set [5], 4%.

Turning to `CCOC(=O)c1ccc(OCc2ccc(Cl)cc2)cc1`, the Activity in data set [1] was -12%; in data set [2], -53%; in data set [3] it was -7%; in data set [4], 6%; in data set [5] it was 10%.

For `CCOC(=O)c1ccc(OCc2cc(Cl)ccc2Cl)cc1`, the Activity in data set [1] is listed as -25%; in data set [2], -56%; in data set [3], 4%; in data set [4], 13%; in data set [5] it was 22%.

Turning to `O=C(OCc1ccccc1)c1ccc(OCc2ccccc2)cc1`, the Activity is on record as -21% in data set [1]; -50% in data set [2]; 6% in data set [3]; 6% in data set [4]; 7% in data set [5].

Turning to `CCOC(=O)c1ccc(OCc2cccc(C)c2)cc1`, the Activity was -18% in data set [1], -54% in data set [2], -10% in data set [3] and -2% in data set [4]. In addition, the inhibition at 500 µM in data set [6] amounted to 97%; in data set [7] it was 82%.

In the case of `CCOC(=O)Cc1ccc(OCc2ccccc2F)cc1`, the Activity in data set [1] is given as -29%; in data set [2] it was -64%; in data set [3] it was -20%; in data set [4], -22%; in data set [5] it was -1%.

On to `CC(C)OC(=O)c1ccc(OCc2ccccc2)cc1`, for which the Activity in data set [1] is reported as -10%; in data set [2], -40%; in data set [3] it was -4%; in data set [4] it was 13%; in data set [5], -5%.

Consider `CCOC(=O)c1ccc(COc2ccc(C)cc2)cc1`, for which the Activity in data set [1] is -20%; in data set [2], -41%; in data set [3], 5%; in data set [4], 4%; in data set [5], 13%.

Regarding `Cc1ccc(OCc2ccccc2)cc1`, the Activity is listed as -19% in data set [1], -19% in data set [2], -7% in data set [3] and 29% in data set [4]. Besides, the results for the inhibition at 500 µM in data set [6] and in data set [7] were 67% and 43%, respectively.
